Molecular target: Hexokinase-4 (Human, UniProt P35557)
Assay: Glucokinase Activity Assay
Description: Recombinant human liver glucokinase was expressed as a FLAG fusion protein in E. coli, and purified on […] M2 AFFINITY GEL (Sigma). The assay was carried out at 30° C. in a 96-well plate. In the plate was distributed 69 μl each of assay buffer (25 mM Hepes Buffer: pH=7.2, 2 mM MgCl2, 1 mM ATP, 0.5 mM TNAD, 1 mM dithiothreitol), to which was added 1 μl of a DMSO solution of the compound or DMSO as control. Then, 20 μl of pre-ice-cooled enzyme mixture (FLAG-GK, 20 U/ml G6PDH) was distributed thereto, to which was added 10 μl of 25 mM glucose as substrate to initiate the reaction (final glucose concentration=2.5 mM). After starting the reaction, the absorbance at 405 nm was measured every 30 seconds for 10 minutes to evaluate the compound based on the initial increase for 5 minutes. FLAG-GK was added so that the increase of absorbance after 5 minutes fell between 0.05 to 0.1 in the presence of 1% DMSO.

Chain of Hexokinase-4 (P35557 whole entry, other chains not shown): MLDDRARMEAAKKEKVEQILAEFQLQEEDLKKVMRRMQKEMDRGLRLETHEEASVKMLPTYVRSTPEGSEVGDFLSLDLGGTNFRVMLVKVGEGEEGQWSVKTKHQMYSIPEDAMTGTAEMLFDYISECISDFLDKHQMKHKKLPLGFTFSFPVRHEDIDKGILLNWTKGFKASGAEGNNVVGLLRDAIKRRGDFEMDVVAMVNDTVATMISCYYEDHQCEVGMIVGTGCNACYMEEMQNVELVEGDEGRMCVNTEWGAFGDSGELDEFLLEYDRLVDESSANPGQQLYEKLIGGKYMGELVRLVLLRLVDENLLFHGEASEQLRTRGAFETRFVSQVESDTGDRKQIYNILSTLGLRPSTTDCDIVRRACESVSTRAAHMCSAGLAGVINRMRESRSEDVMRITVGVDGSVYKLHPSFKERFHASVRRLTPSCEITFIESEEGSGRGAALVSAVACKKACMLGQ

SMILES | EC50
CCOC(=O)C(C)(C)CSc1cnc(NC(=O)c2nc(Sc3nncn3C)ccc2Sc2ccc(F)cc2)s1 [US9527838, 20] | 16.9 nM
CCOC(=O)CSc1cnc(NC(=O)c2nc(Sc3ccc(F)cc3)ccc2Sc2ccc(F)cc2)s1 [US9527838, 27] | 386 nM
CCOC(=O)Cc1nc(NC(=O)c2nc(Sc3ccc(F)cc3)ccc2Sc2ccc(F)cc2)sc1Cl [US9527838, 29] | 16000 nM
